Each structure is given as a SMILES string. ≈ marks a conversion by molar mass, not a printed value. Where two headings read alike, the source gives them in different places.

The nature of one data set: Solubility. The conditions noted are these: 24 h room temperature, max. 500 μg/ml; for solubility at 24 h: thermodynamic from solid. Type of data set: physicochemical. Here is the method: For each substance 0.5-0.6 mg are weighed exactly. In each case, sufficient medium is added to the sample in such a way that a concentration of c=500 μg/ml is obtained. This sample solution is shaken for 24 h at room temperature and 1400 rpm.
A further sample weight of 0.5-0.6 mg is required for the DMSO calibration solution. This sample is filled with DMSO to a concentration of c=600 μg/ml. Two calibration solutions are prepared from this stock solution. In a 2 ml HPLC vial, 1000 μl of DMSO are initially introduced and 34.4 μl of the stock solution are pipetted (c=20 µg/ml). […] of this solution (c=20 μg/ml) are placed in a further 2 ml HPLC vial containing 500 μl of DMSO (c=2.5 μg/ml).
After shaking the test solutions, 230 μl of the supernatant are transferred into a centrifuge tube and centrifuged at 42 000 rpm (223 000 g) for 30 min. 180 μl of the supernatant are then taken and each diluted with DMSO (1:5 sample 1; 1:100 sample 2), and transferred to HPLC vials. The two calibration solutions and the dilute sample solutions are analyzed by HPLC. Quantification is performed over the corresponding peak areas.
Distilled water; trifluoroacetic acid (Merck; 1.08262.0100); acetonitrile (HPLC grade); DMSO (Merck; 8.02912.2500).
Fluka buffer, Order No. 33643 (11.76 g citric acid, 2.57 g sodium chloride and 2.72 g sodium hydroxide).
Fluka buffer, Order No. 33646 (3.52 g potassium dihydrogenphosphate, 7.26 g sodium hydrogen phosphate).
Solution of 6.18 g sodium chloride and 3.96 g sodium dihydrogen phosphate in 1 L distilled water, adjust with 1M aqueous sodium hydroxide solution to pH 7.4.
0.6057 g TRIS was dissolved in 95 ml water, adjust to pH 8.5 with aqueous hydrochloric acid, fill with water until 100 ml volume is reached.

The next data set has as its target T1, human V1a receptor (Homo sapiens, UniProt P37288).
T1 construct: expressed in transfected cells; host or cells: CHO K1 (Chinese hamster ovary), also stably transfected with a modified aequorin
Nature of the data set: Cellular in vitro assay for verification of prodrug conversion into drug (with/without alkaline phosphatase). Type of data set: cell-based. The conditions noted are these: human V1a CHO cells. Here is the method: B-4. Cellular In Vitro Assay for Verification of Prodrug Conversion into Drug
To verify the conversion of prodrugs into the respective drugs, the prodrugs are incubated with and without alkaline phosphatase. Cleavage of the phosphate moiety by alkaline phosphatase converts the prodrug into the underlying respective drug [Coleman J. E., Annu. Rev. Biophys. Biomol. Struct. 1992, 21, 441-483]. As prodrug and underlying respective drug show different IC50 values, the value of the prodrug after alkaline phosphatase treatment resembles the IC50 of the respective drug. The determination of IC50 values of compounds of the invention at the human V1a receptor is carried out using a recombinant cell line. The cell line originally derives from a hamster's ovary epithelial cell (Chinese Hamster Ovary, CHO K1, ATCC: American Type Culture Collection, Manassas, Va. 20108, USA). The test cell line constitutively expresses the human V1a receptor. Cells are also stably transfected with a modified form of the calcium-sensitive photoprotein aequorin which, after reconstitution with the cofactor coelenterazine, emits light upon increase in free calcium concentration [Rizzuto R, Simpson A W, Brini M, Pozzan T, Nature 358, 325-327 (1992); Illarionov B A, Bondar V S, Illarionova V A, Vysotski E S, Gene 153 (2), 273-274 (1995)]. The resulting vasopressin receptor cell reacts to stimulation of the recombinantly expressed V1a receptor by intracellular release of calcium ions, which can be quantified by the resulting luminescence of photoprotein. The bioluminescence of the cell line is detected using a suitable luminometer [Milligan G, Marshall F, Rees S, Trends in Pharmacological Sciences 17, 235-237 (1996)].
On the day before the assay, the cells are seeded in culture medium (DMEM/F12, 2% FCS, 2 mM glutamine, 10 mM HEPES, 5 μg/ml coelenterazine) in 384-well microtiter plates and kept in a cell incubator (96% humidity, 5% v/v CO2, 37C). On the day of the assay, 100 μl of test compounds at a concentration of 100 μM are incubated for 15 minutes with 500 units alkaline phosphatase at 37° C. in tyrode buffer (20 mM HEPES, 130 mM NaCl, 5 mM KCl, 5 mM NaHCO3, 2 mM MgCl2, pH 7,4). After incubation compounds are immediately diluted and placed for 10 minutes at 37° C. on the before seeded V1a cells. For detection of antagonistic activity of the compounds [Arg^8]-vasopressin at EC50 concentration is added and the resulting light signal is measured immediately in a luminometer.

The mark [1] stands for this setting: Tris buffer pH 8.5, pH 8.5, aqueous buffer, pH = 8.5 Tris buffer.
The mark [2] stands for this setting: citrate buffer pH 4, pH 4, aqueous buffer, pH = 4 citrate buffer.
The mark [3] stands for this setting: phosphate buffer pH 7, pH 7, aqueous buffer, pH = 7.0 buffer.
[4] abbreviates: pre-incubation 15 min with 500 units alkaline phosphatase at 37° C., read-out: IC50 with AP.
Setting [5] is: without alkaline phosphatase, read-out: IC50 without AP.

T1 sequence (P37288 whole entry): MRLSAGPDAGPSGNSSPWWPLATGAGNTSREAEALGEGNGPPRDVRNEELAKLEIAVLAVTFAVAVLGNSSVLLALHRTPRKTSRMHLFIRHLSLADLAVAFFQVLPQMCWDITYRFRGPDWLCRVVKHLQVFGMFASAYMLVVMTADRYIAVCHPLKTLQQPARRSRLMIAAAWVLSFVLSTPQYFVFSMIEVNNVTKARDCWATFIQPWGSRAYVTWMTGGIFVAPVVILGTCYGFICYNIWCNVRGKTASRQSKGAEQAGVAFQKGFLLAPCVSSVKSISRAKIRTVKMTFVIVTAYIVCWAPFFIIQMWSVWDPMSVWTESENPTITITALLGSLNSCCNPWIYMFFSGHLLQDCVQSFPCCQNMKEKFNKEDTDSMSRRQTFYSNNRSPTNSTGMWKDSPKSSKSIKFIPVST

For the compound `NC(=O)c1nc(Cn2nc(-c3ccc(Cl)cc3)n(C[C@H](OP(=O)(O)O)C(F)(F)F)c2=O)nn1-c1ncccc1C(F)(F)F` [Example 1, (2S)-3-[1-({5-Carbamoyl-1-[3-(trifluoromethyl)pyridin-2-yl]-1H-1,2,4-triazol-3-yl}methyl)-3-(4-chlorophenyl)-5-oxo-1,5-dihydro-4H-1,2,4-triazol-4-yl]-1,1,1-trifluoropropan-2-yl Dihydrogen Phosphate], the solubility at 24 h in the data set “Solubility” (setting [1]), in “Solubility” (setting [2]) and in “Solubility” (setting [3]) was more than 500 µg/mL in each case. Also, the half-inhibitory concentration (IC50) at human V1a receptor (setting [4]) is 1.45 nM; on human V1a receptor (setting [5]) it was 13.1 nM.

In the case of `NC(=O)c1nc(Cn2nc(-c3ccc(Cl)cc3)n(C[C@H](O)C(F)(F)F)c2=O)nn1-c1ncccc1C(F)(F)F` [Example 4A, 3-({3-(4-Chlorophenyl)-5-oxo-4-[(2S)-3,3,3-trifluoro-2-hydroxypropyl]-4,5-dihydro-1H-1,2,4-triazol-1-yl}methyl)-1-[3-(trifluoromethyl)pyridin-2-yl]-1H-1,2,4-triazole-5-carboxamide], the solubility at 24 h in “Solubility” (setting [1]) is 6.7 µg/mL (≈ 11.6 µM); in “Solubility” (setting [2]) it was 8.7 µg/mL (≈ 15.1 µM). Also, in the data set “Solubility” (pH = 7.0 buffer), the Solubility entry was “not detectable”. Moreover, the IC50 at human V1a receptor (setting [4]) was determined as 1.35 nM; at human V1a receptor (setting [5]), 1.25 nM.

For the compound `NC(=O)c1nc(Cn2nc(-c3ccc(Cl)cc3)n(C[C@H](OP(=O)(O)O)C(F)(F)F)c2=O)nn1-c1ccccc1C(F)(F)F` [Example 10, (2S)-3-[1-({5-Carbamoyl-1-[2-(trifluoromethyl)phenyl]-1H-1,2,4-triazol-3-yl}methyl)-3-(4-chlorophenyl)-5-oxo-1,5-dihydro-4H-1,2,4-triazol-4-yl]-1,1,1-trifluoropropan-2-yl Dihydrogen Phosphate], the solubility at 24 h in the data set “Solubility” (setting [1]) was 479 µg/mL; in “Solubility” (setting [2]), 454 µg/mL; in the data set “Solubility” (setting [3]), more than 500 µg/mL. Further, the IC50 at human V1a receptor (setting [4]) is 1.3 nM; on human V1a receptor (setting [5]), 11 nM.

Take `NC(=O)c1nc(Cn2nc(-c3ccc(Cl)cc3)n(C[C@H](OP(=O)(O)O)C(F)(F)F)c2=O)nn1-c1ncccc1Cl` [Example 17, (2S)-3-[1-{[5-Carbamoyl-1-(3-chloropyridin-2-yl)-1H-1,2,4-triazol-3-yl]methyl}-3-(4-chloro-phenyl)-5-oxo-1,5-dihydro-4H-1,2,4-triazol-4-yl]-1,1,1-trifluoropropan-2-yl Dihydrogen Phosphate]: the solubility at 24 h in the data set “Solubility” (setting [1]), in “Solubility” (setting [2]) and in the data set “Solubility” (setting [3]) was more than 500 µg/mL in each case. The concentration for half-maximal inhibition (IC50) came out at 1.03 nM on human V1a receptor (setting [4]) and 9.45 nM on human V1a receptor (setting [5]).

Broadly, the solubility is the dissolved amount per volume that the medium holds. High values mean a readily soluble substance, low ones a poorly soluble substance. As usually defined, the IC50 is the concentration needed to halve the response being measured.

The values above are taken from US11298367B2, “Prodrugs of substituted triazole derivatives and uses thereof” (Bayer Aktiengesellschaft, priority 2017, dated 2022).
